Assay results reported in patent publication US8791094B2, “Treatment of prostate cancer” (Tokai Pharmaceuticals, Inc., priority 2009, dated 2014).
pIC50: −log10 of the molar value.

Legend:
[1] = target: T1, CYP17 (Homo sapiens, UniProt P05093); assay: Inhibition of lyase activity (CYP17); assay type: biochemical; conditions: CYP17 expressed by transfected E. coli; radiolabelled 17α-hydroxypregnenolone substrate
T1 construct: made in house; host or cells: E. coli
T1 sequence (P05093 1-508): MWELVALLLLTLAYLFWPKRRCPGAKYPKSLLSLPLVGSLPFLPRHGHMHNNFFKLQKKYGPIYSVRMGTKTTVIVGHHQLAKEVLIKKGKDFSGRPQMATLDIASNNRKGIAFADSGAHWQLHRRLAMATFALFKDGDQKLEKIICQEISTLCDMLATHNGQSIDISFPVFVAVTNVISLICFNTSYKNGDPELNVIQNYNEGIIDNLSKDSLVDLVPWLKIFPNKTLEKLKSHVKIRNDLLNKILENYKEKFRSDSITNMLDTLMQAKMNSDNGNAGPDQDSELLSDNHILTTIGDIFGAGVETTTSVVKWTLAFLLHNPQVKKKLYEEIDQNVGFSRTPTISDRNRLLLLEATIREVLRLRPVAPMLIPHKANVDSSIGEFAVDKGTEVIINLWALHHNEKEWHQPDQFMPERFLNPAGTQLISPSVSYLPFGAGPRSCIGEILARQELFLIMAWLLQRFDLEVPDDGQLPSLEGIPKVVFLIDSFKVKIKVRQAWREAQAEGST
Protocol: Intact CYP17 expressed by transfected E. coli was isolated and purified as an enzyme source. Radiolabelled 17α-hydroxypregnenolone as the substrate. CYP17 activity was measured by the amount of tritiated acetic acid formed during the cleavage of the C-21 side chain of the substrate.

[2] = system: LAPC4 prostate cancer cell tumors; assay: Growth of human prostate cancer xenografts in SCID mice; assay type: in vivo
Protocol: Xenografts of LAPC4 prostate cancer cell tumors were implanted in SCID mice. […] Tumor size was measured weekly and compared with control mice that received vehicle, Casodex® or castration only.

[3] = system: PSA; assay: Clinical study in chemotherapy naive CRPC: PSA response; assay type: in vivo, human
Protocol: The primary efficacy endpoint is the percent of subjects with 50% or greater decrease in PSA from baseline to 12 weeks, or PSA nadir (whichever comes first). Frequency and percentage are calculated for each treatment group. The primary analysis is also repeated using the PP Population.
A clinical study was performed according to the protocol of Example 6. Compound (1) was administered to four cohorts, each in a different amount.

[4] = Nonclinical safety evaluation (cell-based and animal models); conditions: nonclinical data
Text: This is a first-in-man trial of Compound 1 and potential toxic effects in humans are not yet fully known. […] An additional known class effect, apparent mineralocorticoid excess (AME), was not seen in nonclinical studies. This trial has been designed with the adverse nonclinical findings, theoretical MOA, and consideration of known class effect issues in mind. The trial evaluates potential clinical benefit and provides proof of concept while minimizing risk to subjects.

[5] = system: cytochrome P450 systems; assay: In vitro safety testing: cytochrome P450 systems; assay type: in vitro ADME
[6] = system: LAPC-4; assay: Inhibition of testosterone-induced proliferation, LAPC-4; assay type: cell-based, human; conditions: LAPC-4 stimulated with 1 nM DHT
Protocol: (§1) Human prostate cancer cell lines (LNCaP and LAPC-4) were grown in culture and stimulated with 1 nM dihydrotestosterone (DHT). This concentration of DHT stimulated the proliferation of prostate cancer cells.

[7] = in vivo; conditions: dog
Text: On an AUC basis the human starting dose is predicted to be 16 times lower than the NOAEL dose in dogs.

[8] = system: LNCaP; assay: Inhibition of testosterone-induced proliferation, LNCaP; assay type: cell-based, human; conditions: LNCaP stimulated with 1 nM DHT
Protocol: as §1

[9] = Oral bioavailability (nonclinical); conditions: in vivo
[10] = In vitro safety testing: genotoxicity
[11] = system: off-target receptors; assay: In vitro safety testing: off-target receptors; assay type: binding
[12] = Chronic administration toxicity in rats; assay type: in vivo; conditions: administered chronically to rats

C[C@]12CC[C@H](O)CC1=CCC1C2CC[C@]2(C)C(n3cnc4ccccc43)=CCC12 (stereo partly drawn) [Compound (1), 3-β-Hydroxy-17-(1H-benzimidazol-1-yl)androsta-5,16-diene]
pIC50 [1]: 6.52
tumor growth ([2]; 50 mg/kg BW SC twice daily, compared with castration): comparable or more pronounced decrease in tumor growth compared to castration
size of androgen dependent human prostate tumors ([2]; SCID mouse models, levels corresponding to human subcutaneous doses of 140, 280, and 560 mg): dramatic reduction
Percentage of Patients With a PSA Response ([3]; Cohort 1, 650 mg/day, 6 patients treated): 67% (4)
Percentage of Patients With a PSA Response ([3]; Cohort 2, 975 mg/day, 6 patients treated): 67% (4)
Percentage of Patients With a PSA Response ([3]; Cohort 3, 1300 mg/day, 6 patients treated): 83% (5)
Percentage of Patients With a PSA Response ([3]; Cohort 4, 1950 mg/day, 7 patients treated): 71% (5)
only safety signal seen [4]: hepatoxicity
toxicity in cell-based and animal models [4]: minimal toxicity
interference with activity of cytochrome P450 systems known to metabolize many drugs [5]: does not interfere
inhibition of testosterone induced proliferation [6]: dose-dependent inhibition
NOAEL [7]: 150 mg/kg
inhibition of testosterone induced proliferation [8]: dose-dependent inhibition
oral bioavailability [9]: orally bioavailable
genotoxicity [10]: does not have genotoxicity
interaction with off-target receptors [11]: only at high micromolar concentrations
toxic responses [12]: fails to elicit toxic responses
